According to patent US20230181614A1, “ADMINISTRATION OF CITICOLINE TO IMPROVE COGNITIVE PERFORMANCE, ATTENTIONAL PERFORMANCE, AND MOTOR FUNCTION” (KYOWA HAKKO BIO CO., LTD., priority 2014, published 2023):

Key:
[1] = tested on: Healthy subjects, ages 13-18; assay: Positive and Negative Affect Scale for Children (PANAS-C); type: in vivo, human
Text: Study participants were screened by telephone prior to study enrollment. Healthy subjects, ages 13-18, with no significant medical conditions and no history of co-morbid psychiatric disorder, current Axis I or II diagnosis, or previous participation in a pharmacotherapeutic trial, were selected. Use of any psychotropic medication or any previous head injury resulting in loss of consciousness for 5 or more minutes were used as exclusion criteria. While no participant met criteria for a neuropsychiatric disorder at enrollment, clinical assessments were still completed throughout the study to evaluate changes in mood state. In addition, self-reports of sleep habits, lifestyle, and exercise routines were also administered at baseline as well as at each study visit to assess changes in health habits during study participation. Following the completion of Visit 1 assessment, participants were given their 28-day supply of citicoline (250 mg or 500 mg) or placebo, which was randomly assigned. They were instructed to take one capsule a day every day for the next 28 days. Visit 2 occurred fourteen days after Visit 1. At Visit 2, the remaining study pills were counted and participant dosage calendars were checked to ensure compliance with the protocol. Additional neuropsychological measures and clinical assessments were administered during this visit. Participants returned for Visit 3 fourteen days later, on the 28th day of their study participation. The pill bottle and the dosage calendar were collected from each participant. Urine and blood were again obtained. Participants also participated in similar clinical and neuropsychological testing and clinical measures that were given during visit 1. The […] is a self-report questionnaire on which participants rate to what extent they are currently experiencing a variety of positive and negative emotions such as “excited” and “mad.” The PANAS was administered during each of the three visits to assess participant affect prior to taking the study drug as well as after taking the study drug over a period of 28 days.

[2] = tested on: Healthy subjects, ages 13-18; assay: Rey-Osterreith Complex Figure Test (ROCFT) / Modified Taylor Complex Figure; type: in vivo, human; parameters: key: raw score: elements correctly recalled, accuracy and placement; conditions: for ROCFT Copy Raw Score V1, Mean / ROCFT Delayed Raw Score V1, Mean / ROCFT Difference Raw Score V1, Mean / ROCFT Immediate Raw Score V1, Mean: Visit 1; for ROCFT V3-V1 Copy Raw Score, Mean / ROCFT V3-V1 Delayed Raw Score, Mean / ROCFT V3-V1 Difference Raw Score, Mean / ROCFT V3-V1 Immediate Raw Score, Mean: Visit difference score
Text: Study participants were screened by telephone prior to study enrollment. Healthy subjects, ages 13-18, with no significant medical conditions and no history of co-morbid psychiatric disorder, current Axis I or II diagnosis, or previous participation in a pharmacotherapeutic trial, were selected. Use of any psychotropic medication or any previous head injury resulting in loss of consciousness for 5 or more minutes were used as exclusion criteria. While no participant met criteria for a neuropsychiatric disorder at enrollment, clinical assessments were still completed throughout the study to evaluate changes in mood state. In addition, self-reports of sleep habits, lifestyle, and exercise routines were also administered at baseline as well as at each study visit to assess changes in health habits during study participation. Following the completion of Visit 1 assessment, participants were given their 28-day supply of citicoline (250 mg or 500 mg) or placebo, which was randomly assigned. They were instructed to take one capsule a day every day for the next 28 days. Visit 2 occurred fourteen days after Visit 1. At Visit 2, the remaining study pills were counted and participant dosage calendars were checked to ensure compliance with the protocol. Additional neuropsychological measures and clinical assessments were administered during this visit. Participants returned for Visit 3 fourteen days later, on the 28th day of their study participation. The pill bottle and the dosage calendar were collected from each participant. Urine and blood were again obtained. Participants also participated in similar clinical and neuropsychological testing and clinical measures that were given during visit 1. The ROCFT is an assessment of visuo-organizational ability, visual attention, and visual memory. The participant is asked to copy a complex 2-dimensional figure with the stimulus or complex figure in front of them (Copy Trial), immediately after the stimulus has been removed (Short Delay Trial), and after 30 minutes without the stimulus present (Long Delay Trial). The figure produced at each trial is then evaluated for the strategy used in reproducing the figure, constructional accuracy, and placement of elements within the figure. The Copy, Short Delay, and Long Delay trials are each scored on the number of elements that have been correctly recalled and the accuracy and placement of each element. The Difference Score between immediate and delayed performance scores is a measure of temporary decay for visuospatial memory. This test was administered on both the first and the third visits. The Modified Taylor Complex Figure (MTCF) is an alternate form of the ROCFT to assess visuo-organizational ability, visual attention, and visual memory. The same procedure was used to administer the MTCF. The MTCF was administered at the second visit instead of the ROCFT to minimize the effect of repeat testing on copy and retention of the figure across visits.

C[N+](C)(C)CCOP(=O)(O)OP(=O)([O-])OC[C@H]1O[C@@H](n2ccc(N)nc2=O)[C@H](O)[C@@H]1O [citicoline, Cytidine 5′-diphosphocholine]
PANAS-C Negative Score, Mean ([1]; 250 mg/day, V1 (baseline)): 23.15
PANAS-C Positive Score, Mean ([1]; 250 mg/day, V1 (baseline)): 45.74
PANAS-C Negative Score, Mean ([1]; 250 mg/day, V3 (day 28)): 19.81
PANAS-C Positive Score, Mean ([1]; 250 mg/day, V3 (day 28)): 41.93
PANAS-C Negative Score, Mean ([1]; 250 mg/day, V3-V1): -3.33
PANAS-C Positive Score, Mean ([1]; 250 mg/day, V3-V1): -3.81
PANAS-C Negative Score, Mean ([1]; 500 mg/day, V1 (baseline)): 21.55
PANAS-C Positive Score, Mean ([1]; 500 mg/day, V1 (baseline)): 43.30
PANAS-C Negative Score, Mean ([1]; 500 mg/day, V3 (day 28)): 18.00
PANAS-C Positive Score, Mean ([1]; 500 mg/day, V3 (day 28)): 41.78
PANAS-C Negative Score, Mean ([1]; 500 mg/day, V3-V1): -3.55
PANAS-C Positive Score, Mean ([1]; 500 mg/day, V3-V1): -1.52
PANAS-C positive emotional attributes, between groups ([1]; Placebo vs 500 mg/day, visit 3, p=0.39): No significant effect
ROCFT Copy Raw Score V1, Mean ([2]; 250 mg/day group): 29.72
ROCFT Delayed Raw Score V1, Mean ([2]; 250 mg/day group): 21.63
ROCFT Difference Raw Score V1, Mean ([2]; 250 mg/day group): -0.24
ROCFT Immediate Raw Score V1, Mean ([2]; 250 mg/day group): 21.39
ROCFT V3-V1 Copy Raw Score, Mean ([2]; 250 mg/day group): 0.28
ROCFT V3-V1 Delayed Raw Score, Mean ([2]; 250 mg/day group): 3.80
ROCFT V3-V1 Difference Raw Score, Mean ([2]; 250 mg/day group): 1.35
ROCFT V3-V1 Immediate Raw Score, Mean ([2]; 250 mg/day group): 5.15
ROCFT Copy Raw Score V1, Mean ([2]; 500 mg/day group): 29.13
ROCFT Delayed Raw Score V1, Mean ([2]; 500 mg/day group): 19.00
ROCFT Difference Raw Score V1, Mean ([2]; 500 mg/day group): 0.44
ROCFT Immediate Raw Score V1, Mean ([2]; 500 mg/day group): 19.48
ROCFT V3-V1 Copy Raw Score, Mean ([2]; 500 mg/day group): 0.27
ROCFT V3-V1 Delayed Raw Score, Mean ([2]; 500 mg/day group): 5.31
ROCFT V3-V1 Difference Raw Score, Mean ([2]; 500 mg/day group): 0.13
ROCFT V3-V1 Immediate Raw Score, Mean ([2]; 500 mg/day group): 5.40
